The values below come from patent publication US8541474B2 (Hanall Biopharma Co., Ltd., priority 2007, dated 2013).

One data set relates to Human being. To be noted: Oral; cited from earlier work.
In the next data set the test system is Mouse. The note with it: Intraperitoneal; cited from earlier work.
Data set [1] in a line: Measurement of hygroscopicity. The format is physicochemical. The note with it: 95% RH, 25° C.
Data set [2] concerns diabetes mellitus induced experimental animal. Kind of data set: Effect of drop in blood glucose level in diabetes mellitus induced (alloxan) rats. The note with it: for glucose concentration in blood: 0.05 mg as metformin, peritoneally. In kind it is in vivo. The text has this:
This test supports the effect of the present invention.

The subject of another data set is male ICR mice. In words: Test of drop in blood glucose after meal (OGTT with sucrose load). The format is in vivo. The note with it: for effect of drop in blood glucose compared to G8 (excipient control): 20 minutes after administration of sucrose.
[3] abbreviates: 100 mg/kg oral, 0 min after sucrose 2 g/kg.
Where [4] appears, read: 100 mg/kg oral, 40 min after sucrose 2 g/kg.
The mark [5] stands for this setting: 100 mg/kg oral, 60 min after sucrose 2 g/kg.
Where [6] appears, read: 100 mg/kg oral, 90 min after sucrose 2 g/kg.
Setting [7] is: 100 mg/kg oral, 120 min after sucrose 2 g/kg.
The mark [8] stands for this setting: 100 mg/kg oral, 240 min after sucrose 2 g/kg.
The mark [9] stands for this setting: 200 mg/kg oral, 0 min after sucrose 2 g/kg.
Setting [10] is: 200 mg/kg oral, 20 min after sucrose 2 g/kg.
[11] abbreviates: 200 mg/kg oral, 40 min after sucrose 2 g/kg.
Where [12] appears, read: 200 mg/kg oral, 60 min after sucrose 2 g/kg.
[13] abbreviates: 200 mg/kg oral, 90 min after sucrose 2 g/kg.
[14] abbreviates: 200 mg/kg oral, 120 min after sucrose 2 g/kg.
Where [15] appears, read: 200 mg/kg oral, 240 min after sucrose 2 g/kg.
Setting [16] is: 400 mg/kg oral, 0 min after sucrose 2 g/kg.
Where [17] appears, read: 400 mg/kg oral, 20 min after sucrose 2 g/kg.
Where [18] appears, read: 400 mg/kg oral, 40 min after sucrose 2 g/kg.
[19] abbreviates: 400 mg/kg oral, 60 min after sucrose 2 g/kg.
The mark [20] stands for this setting: 400 mg/kg oral, 90 min after sucrose 2 g/kg.
The mark [21] stands for this setting: 400 mg/kg oral, 120 min after sucrose 2 g/kg.
Where [22] appears, read: 400 mg/kg oral, 240 min after sucrose 2 g/kg.

Counter-ions that a name gives are not always drawn.

Consider `CC(=O)O` [Acetic acid], for which the “Dose (TDLo)” value in the data set on Human being is recorded as 1,470 μg/kg.
For the compound `Cl` [Hydrochloric acid], the “Dose (LD50)” value with Mouse is on record as 40 mg/kg.
Regarding `CC(=O)O.CN(C)C(=N)NC(=N)N` [Metformin acetate, N,N-dimethyl imidodicarbonimidic diamide acetate], the “hygroscopicity compared with metformin hydrochloride” value in data set [1] is reported as “lower than that of the metformin hydrochloride”. Also, the Hygroscopicity in data set [1] (1 day) was found to be 0.35%; in data set [1] (2 days), 0.93%; in data set [1] (3 days), 1.37%; in data set [1] (6 days), 11.21%; in data set [1] (9 days), 23.32%. The “decrease of glucose concentration versus control group” value in data set [2] (10 hours after administration) is given as “about 7.5 mmol/L”. Also, the “effect of drop in blood glucose compared with metformin hydrochloride” value in data set [2] (alloxan rats) was “more excellent than that of metformin hydrochloride”; in the data set with male ICR mice (200 and 400 mg/kg dosage group, 20 to 60 minutes after administration of sucrose) it was “higher effect of drop in blood glucose than that of the metformin hydrochloride”. Further, the “glucose concentration in blood” value in data set [2] (alloxan rats, 0 hours) was 13.8 mmol/L; in data set [2] (alloxan rats, 2 hours), 6.4 mmol/L; in data set [2] (alloxan rats, 4 hours), 7.5 mmol/L; in data set [2] (alloxan rats, 6 hours) it was 6.8 mmol/L; in data set [2] (alloxan rats, 8 hours), 5.9 mmol/L; in data set [2] (alloxan rats, 10 hours), 6.9 mmol/L. Further, the “glucose concentration in blood” value was 101.63 ± 4.94 mg/dL with male ICR mice (setting [3]); 212.00 ± 15.68 mg/dL in the data set with male ICR mice (setting [4]); 170.75 ± 17.38 mg/dL in the data set with male ICR mice (setting [5]); 134.50 ± 15.64 mg/dL with male ICR mice (setting [6]); 106.63 ± 10.44 mg/dL in the data set on male ICR mice (setting [7]); 63.63 ± 4.94 mg/dL in the data set with male ICR mice (setting [8]). Also, the “glucose concentration in blood” value worked out at 101.63 ± 4.58 mg/dL with male ICR mice (setting [9]); 213.13 ± 11.36 mg/dL in the data set with male ICR mice (setting [10]); 201.00 ± 21.78 mg/dL in the data set with male ICR mice (setting [11]); 165.75 ± 15.91 mg/dL with male ICR mice (setting [12]); 129.63 ± 8.08 mg/dL in the data set on male ICR mice (setting [13]); 106.38 ± 4.07 mg/dL in the data set with male ICR mice (setting [14]). The “glucose concentration in blood” value in the data set on male ICR mice (setting [15]) turned out to be 80.00 ± 3.73 mg/dL; in the data set with male ICR mice (setting [16]), 104.13 ± 6.53 mg/dL; in the data set on male ICR mice (setting [17]), 190.25 ± 16.05 mg/dL; with male ICR mice (setting [18]) it was 169.63 ± 21.19 mg/dL; in the data set with male ICR mice (setting [19]), 141.50 ± 18.24 mg/dL; in the data set with male ICR mice (setting [20]), 106.38 ± 13.75 mg/dL. For the same compound, the “glucose concentration in blood” value with male ICR mice (setting [21]) was found to be 86.25 ± 11.25 mg/dL; with male ICR mice (setting [22]), 69.25 ± 7.96 mg/dL. Further, the “effect of drop in blood glucose” value is on record as “effect of drop in blood glucose could be observed” with male ICR mice (100 mg/kg (G2), 240 minutes); “effect of drop in blood glucose could be observed” with male ICR mice (200 mg/kg (G3), 120 minutes); “effect of drop in blood glucose could be observed” with male ICR mice (200 mg/kg (G3), 240 minutes). In addition, the “effect of drop in blood glucose compared to G8 (excipient control)” value is reported as “effect of drop in blood glucose could be observed” with male ICR mice (200 mg/kg (G3, G6)) and “effect of drop in blood glucose could be observed” in the data set with male ICR mice (400 mg/kg (G4, G7)). Also, in the data set with male ICR mice (overall inference from Table 11), the “effect of drop in blood glucose after meal compared with metformin hydrochloride” value is “more excellent than that of the metformin hydrochloride”.
In the case of `CN(C)C(=N)N=C(N)N` [Metformin hydrochloride, metformin hydrochloride, reference compound], the Hygroscopicity came out at 6.29% in data set [1] (1 day); 11.86% in data set [1] (2 days); 23.3% in data set [1] (3 days); 60.33% in data set [1] (6 days); 68.78% in data set [1] (9 days). The “glucose concentration in blood” value in data set [2] (alloxan rats, 0 hours) is on record as 13.8 mmol/L; in data set [2] (alloxan rats, 2 hours), 7.8 mmol/L; in data set [2] (alloxan rats, 4 hours), 6.4 mmol/L; in data set [2] (alloxan rats, 6 hours), 8.6 mmol/L; in data set [2] (alloxan rats, 8 hours) it was 7.9 mmol/L; in data set [2] (alloxan rats, 10 hours) it was 9.4 mmol/L. Moreover, the “glucose concentration in blood” value in the data set on male ICR mice (setting [3]) worked out at 104.00 ± 6.53 mg/dL; in the data set with male ICR mice (100 mg/kg oral, 20 min after sucrose 2 g/kg), 246.00 ± 16.70 mg/dL; in the data set on male ICR mice (setting [4]), 194.38 ± 8.02 mg/dL; in the data set with male ICR mice (setting [5]) it was 151.50 ± 5.45 mg/dL; in the data set on male ICR mice (setting [6]) it was 122.38 ± 4.69 mg/dL; in the data set on male ICR mice (setting [7]), 111.75 ± 6.45 mg/dL. Further, the “glucose concentration in blood” value stood at 83.63 ± 3.49 mg/dL in the data set with male ICR mice (setting [8]); 107.13 ± 2.84 mg/dL with male ICR mice (setting [9]); 227.50 ± 20.57 mg/dL in the data set on male ICR mice (setting [10]); 187.25 ± 15.16 mg/dL in the data set with male ICR mice (setting [11]); 147.25 ± 9.89 mg/dL in the data set on male ICR mice (setting [12]); 121.25 ± 8.15 mg/dL in the data set with male ICR mice (setting [13]). For the same compound, the “glucose concentration in blood” value stood at 106.75 ± 5.65 mg/dL in the data set on male ICR mice (setting [14]); 87.13 ± 4.50 mg/dL in the data set with male ICR mice (setting [15]); 104.75 ± 3.98 mg/dL with male ICR mice (setting [16]); 187.38 ± 10.32 mg/dL in the data set with male ICR mice (setting [17]); 167.63 ± 7.04 mg/dL in the data set on male ICR mice (setting [18]); 135.63 ± 5.53 mg/dL in the data set on male ICR mice (setting [19]). The “glucose concentration in blood” value in the data set on male ICR mice (setting [20]) was 110.50 ± 4.78 mg/dL; in the data set on male ICR mice (setting [21]) it was 87.88 ± 9.90 mg/dL; in the data set on male ICR mice (setting [22]), 64.38 ± 7.69 mg/dL. In addition, the “effect of drop in blood glucose compared to G8 (excipient control)” value is listed as “effect of drop in blood glucose could be observed” in the data set with male ICR mice (200 mg/kg (G3, G6)) and “effect of drop in blood glucose could be observed” in the data set on male ICR mice (400 mg/kg (G4, G7)).
